Laboratory results reported in ChEMBL document CHEMBL1275581, “Detection of the pandemic O25-ST131 human virulent Escherichia coli CTX-M-15-producing clone harboring the qnrB2 and aac(6')-Ib-cr genes in a dog” (2009).
Values after ≈ are worked out from the molar mass of the structure shown.

Assays:
Escherichia coli [1] = experiment: microbe, parasite or virus in culture; details: J53
Escherichia coli [2] = experiment: (§1) Antimicrobial activity against beta-lactamase CTX-M-15-producing fluoroquinolone-resistant Escherichia coli FMV5825 expressing qnrB2 and aac(6')-Ib-cr and harboring gyrA Ser83Ile and Asp87Asn mutant gene and ParC Ser80Ile and Glu84Val mutant gene obtained from dog with urinary tract infection by broth microdilution method; format: functional
Escherichia coli [3] = experiment: Antimicrobial activity against Azide-resistant Escherichia coli J53 by broth microdilution method; format: functional
Escherichia coli [4] = experiment: Antimicrobial activity against Azide-resistant Escherichia coli J53 by broth microdilution method in presence of beta-lactamase inhibitor clavulanic acid; format: functional
Escherichia coli [5] = experiment: Antimicrobial activity against Azide-resistant Escherichia coli J53 transconjugant harboring Escherichia coli DH5alpha-5825 qnrB2 gene by broth microdilution method in presence of beta-lactamase inhibitor clavulanic acid; format: functional
Escherichia coli [6] = experiment: as §1, with “method in presence of beta-lactamase inhibitor clavulanic acid” for “method”; format: functional; details: FMV5825, Urine
Escherichia coli [7] = experiment: Antimicrobial activity against Escherichia coli harboring qnr gene assessed as resistant isolate; format: functional
Escherichia coli [8] = experiment: Antimicrobial activity against Azide-resistant Escherichia coli J53 by broth microdilution method in presence of beta-lactamase inhibitor Tazobactam; format: functional
Escherichia coli [9] = experiment: Antimicrobial activity against Azide-resistant Escherichia coli J53 transconjugant harboring Escherichia coli DH5alpha-5825 qnrB2 gene by broth microdilution method in presence of beta-lactamase inhibitor Tazobactam; format: functional
Escherichia coli [10] = experiment: as §1, with “method in presence of beta-lactamase inhibitor Tazobactam” for “method”; format: functional; details: FMV5825, Urine

Compound: C[C@@H](O)[C@H]1C(=O)N2C(C(=O)O)=C(S[C@@H]3CN[C@H](C(=O)Nc4cccc(C(=O)O)c4)C3)[C@H](C)[C@H]12
- MIC (Escherichia coli [1]): ≤ 0.5 µg/mL
- MIC (Escherichia coli [2]; FMV5825, Urine): ≤ 0.5 µg/mL
- MIC (Escherichia coli [3]): ≤ 0.5 µg/mL

Compound: CO/N=C(\C(=O)N[C@@H]1C(=O)N2C(C(=O)[O-])=C(C[N+]3(C)CCCC3)CS[C@H]12)c1csc(N)n1
- MIC (Escherichia coli [1]): > 16 µg/mL
- MIC (Escherichia coli [2]; FMV5825, Urine): > 16 µg/mL
- MIC (Escherichia coli [3]): ≤ 1 µg/mL

Compound: NCC[C@H](O)C(=O)N[C@@H]1C[C@H](N)[C@@H](O[C@H]2O[C@H](CN)[C@@H](O)[C@H](O)[C@H]2O)[C@H](O)[C@H]1O[C@H]1O[C@H](CO)[C@@H](O)[C@H](N)[C@H]1O [AMIKACIN]
- MIC (Escherichia coli [1]): 2 µg/mL (≈ 3.42 µM)
- MIC (Escherichia coli [2]; FMV5825, Urine): 16 µg/mL (≈ 27.3 µM)
- MIC (Escherichia coli [3]): 0.5 µg/mL (≈ 0.854 µM)

Compound: CC1(C)S[C@@H]2[C@H](NC(=O)[C@H](N)c3ccc(O)cc3)C(=O)N2[C@H]1C(=O)O [AMOXICILLIN]
- MIC (Escherichia coli [4]): 2 µg/mL
- MIC (Escherichia coli [5]): 8 µg/mL
- MIC (Escherichia coli [6]): 8 µg/mL

Compound: CC1(C)S[C@@H]2[C@H](NC(=O)[C@H](N)c3ccccc3)C(=O)N2[C@H]1C(=O)O [AMPICILLIN]
- MIC (Escherichia coli [1]): > 16 µg/mL
- MIC (Escherichia coli [2]; FMV5825, Urine): > 16 µg/mL
- MIC (Escherichia coli [3]): ≤ 4 µg/mL

Compound: C[C@H]1[C@H](NC(=O)/C(=N\OC(C)(C)C(=O)O)c2csc(N)n2)C(=O)N1S(=O)(=O)O [AZTREONAM]
- MIC (Escherichia coli [1]): > 16 µg/mL
- MIC (Escherichia coli [2]; FMV5825, Urine): > 16 µg/mL
- MIC (Escherichia coli [3]): ≤ 1 µg/mL

Compound: Cc1nnc(SCC2=C(C(=O)O)N3C(=O)[C@@H](NC(=O)Cn4cnnn4)[C@H]3SC2)s1 [CEFAZOLIN]
- MIC (Escherichia coli [1]): > 16 µg/mL
- MIC (Escherichia coli [2]; FMV5825, Urine): > 16 µg/mL
- MIC (Escherichia coli [3]): ≤ 16 µg/mL

Compound: CO/N=C(\C(=O)N[C@@H]1C(=O)N2C(C(=O)O)=C(COC(C)=O)CS[C@H]12)c1csc(N)n1 [CEFOTAXIME]
- MIC (Escherichia coli [1]): > 64 µg/mL
- MIC (Escherichia coli [4]): ≤ 0.25 µg/mL
- MIC (Escherichia coli [5]): ≤ 0.25 µg/mL
- MIC (Escherichia coli [2]; FMV5825, Urine): > 64 µg/mL
- MIC (Escherichia coli [3]): ≤ 1 µg/mL
- MIC (Escherichia coli [6]): ≤ 0.25 µg/mL

Compound: CO[C@@]1(NC(=O)C2SC(=C(C(N)=O)C(=O)O)S2)C(=O)N2C(C(=O)O)=C(CSc3nnnn3C)CS[C@@H]21 (some centres not stated) [CEFOTETAN]
- MIC (Escherichia coli [1]): ≤ 16 µg/mL
- MIC (Escherichia coli [2]; FMV5825, Urine): ≤ 16 µg/mL
- MIC (Escherichia coli [3]): ≤ 16 µg/mL

Compound: CO[C@@]1(NC(=O)Cc2cccs2)C(=O)N2C(C(=O)O)=C(COC(N)=O)CS[C@@H]21 [CEFOXITIN]
- MIC (Escherichia coli [1]): ≤ 4 µg/mL
- MIC (Escherichia coli [2]; FMV5825, Urine): ≤ 4 µg/mL
- MIC (Escherichia coli [3]): ≤ 4 µg/mL

Compound: COCC1=C(C(=O)O)N2C(=O)[C@@H](NC(=O)/C(=N\OC)c3csc(N)n3)[C@H]2SC1 [CEFPODOXIME]
- MIC (Escherichia coli [1]): > 4 µg/mL
- MIC (Escherichia coli [2]; FMV5825, Urine): > 4 µg/mL
- MIC (Escherichia coli [3]): ≤ 1 µg/mL

Compound: CC(C)(O/N=C(\C(=O)N[C@@H]1C(=O)N2C(C(=O)[O-])=C(C[n+]3ccccc3)CS[C@H]12)c1csc(N)n1)C(=O)O [CEFTAZIDIME]
- MIC (Escherichia coli [1]): 64 µg/mL (≈ 117 µM)
- MIC (Escherichia coli [4]): ≤ 0.25 µg/mL
- MIC (Escherichia coli [5]): ≤ 0.25 µg/mL
- MIC (Escherichia coli [2]; FMV5825, Urine): 128 µg/mL (≈ 234 µM)
- MIC (Escherichia coli [3]): ≤ 1 µg/mL
- MIC (Escherichia coli [6]): ≤ 0.25 µg/mL

Compound: CO/N=C(\C(=O)N[C@@H]1C(=O)N2C(C(=O)O)=C(COC(N)=O)CS[C@H]12)c1ccco1 [CEFUROXIME]
- MIC (Escherichia coli [1]): > 16 µg/mL
- MIC (Escherichia coli [2]; FMV5825, Urine): > 16 µg/mL
- MIC (Escherichia coli [3]): 1 µg/mL (≈ 2.36 µM)

Compound: O=C(O)c1cn(C2CC2)c2cc(N3CCNCC3)c(F)cc2c1=O [CIPROFLOXACIN]
- Activity (Escherichia coli [7]): 26%
- MIC (Escherichia coli [2]; FMV5825, Urine): 128 µg/mL (≈ 386 µM)

Compound: C[C@@H](O)[C@H]1C(=O)N2C(C(=O)O)=C(SCCNC=N)C[C@H]12 [IMIPENEM ANHYDROUS]
- MIC (Escherichia coli [1]): ≤ 1 µg/mL
- MIC (Escherichia coli [2]; FMV5825, Urine): ≤ 1 µg/mL
- MIC (Escherichia coli [3]): ≤ 1 µg/mL

Compound: C[C@H]1COc2c(N3CCN(C)CC3)c(F)cc3c(=O)c(C(=O)O)cn1c23.C[C@H]1COc2c(N3CCN(C)CC3)c(F)cc3c(=O)c(C(=O)O)cn1c23.O [LEVOFLOXACIN]
- MIC (Escherichia coli [1]): 0.031 µg/mL
- MIC (Escherichia coli [2]; FMV5825, Urine): 32 µg/mL
- MIC (Escherichia coli [3]): 0.031 µg/mL

Compound: C[C@@H](O)[C@H]1C(=O)N2C(C(=O)O)=C(S[C@@H]3CN[C@H](C(=O)N(C)C)C3)[C@H](C)[C@H]12 [MEROPENEM]
- MIC (Escherichia coli [1]): ≤ 2 µg/mL
- MIC (Escherichia coli [2]; FMV5825, Urine): ≤ 2 µg/mL
- MIC (Escherichia coli [3]): ≤ 2 µg/mL

Compound: CCn1cc(C(=O)O)c(=O)c2ccc(C)nc21 [NALIDIXIC ACID]
- Activity (Escherichia coli [7]): 34%
- MIC (Escherichia coli [1]): 16 µg/mL (≈ 68.9 µM)
- MIC (Escherichia coli [2]; FMV5825, Urine): > 256 µg/mL
- MIC (Escherichia coli [3]): 4 µg/mL (≈ 17.2 µM)

Compound: CCn1cc(C(=O)O)c(=O)c2cc(F)c(N3CCNCC3)cc21 [NORFLOXACIN]
- MIC (Escherichia coli [1]): 0.5 µg/mL (≈ 1.57 µM)
- MIC (Escherichia coli [2]; FMV5825, Urine): 256 µg/mL (≈ 802 µM)
- MIC (Escherichia coli [3]): 0.062 µg/mL (≈ 0.194 µM)

Compound: CCN1CCN(C(=O)N[C@@H](C(=O)N[C@@H]2C(=O)N3[C@@H]2SC(C)(C)[C@@H]3C(=O)O)c2ccccc2)C(=O)C1=O [PIPERACILLIN]
- MIC (Escherichia coli [8]): ≤ 8 µg/mL
- MIC (Escherichia coli [1]): > 64 µg/mL
- MIC (Escherichia coli [9]): ≤ 8 µg/mL
- MIC (Escherichia coli [2]; FMV5825, Urine): > 64 µg/mL
- MIC (Escherichia coli [3]): ≤ 8 µg/mL
- MIC (Escherichia coli [10]): ≤ 8 µg/mL

Compound: CC1(C)S[C@@H]2[C@H](NC(=O)[C@H](C(=O)O)c3ccsc3)C(=O)N2[C@H]1C(=O)O [TICARCILLIN]
- MIC (Escherichia coli [1]): > 64 µg/mL
- MIC (Escherichia coli [2]; FMV5825, Urine): > 64 µg/mL
- MIC (Escherichia coli [3]): ≤ 16 µg/mL

Compound: NC[C@H]1O[C@H](O[C@H]2[C@H](O)[C@@H](O[C@H]3O[C@H](CO)[C@@H](O)[C@H](N)[C@H]3O)[C@H](N)C[C@@H]2N)[C@H](N)C[C@@H]1O [TOBRAMYCIN]
- MIC (Escherichia coli [1]): > 8 µg/mL
- MIC (Escherichia coli [2]; FMV5825, Urine): > 8 µg/mL
- MIC (Escherichia coli [3]): ≤ 2 µg/mL

Compound: GENTAMICIN
- MIC (Escherichia coli [2]; Urine): 32 µg/mL
- MIC (Escherichia coli [3]): 0.25 µg/mL
